Among the data in ChEMBL document CHEMBL5728758, “Heterocyclic compound as Syk inhibitor and/or Syk-HDAC dual inhibitor” (2021) are IC50 values, retold here.

The target in assay [1] is Tyrosine-protein kinase SYK (Homo sapiens, UniProt P43405). The assay can be described thus: Syk Kinase Activity Inhibitiory Experiment: Measure of SYK protein kinase activity was carried out by using the Caliper mobility shift assay. The compound was dissolved with DMSO and diluted with kinase buffer (20 mM HEPES pH 7.5, 0.01% Triton X-100, 5 mM MgCl2, 1 mM MnCl2, 2 mM DTT), and 5 μl of 5 times the final concentration of the compounds (10% DMSO) were added to 384 well plate. 10 μl of 2.5 fold enzyme (with SYK) solution was added and incubated at room temperature for 10 minutes, then 10 of 2.5 fold substrate (Peptide FAM-P22) and ATP) solution was added. The mixture was incubated for 30 minutes under 28° C., and 25 μl of stop buffer (100 mM HEPES pH 7.5, 0.015% Brij-35, 0.2% Coating Reagent #3, 50 mM EDTA) was added to terminate the reaction. Conversion rate data was read by Caliper EZ Reader II (Caliper Life Sciences). Conversion rate was converted to inhibition rate data (% inhibition rate=(max−conversion rate)/(max−min)*100). The max refers to the conversion rate of the DMSO control, and min refers to the conversion rate of the enzyme-free control. The curve was drawn with the compound concentration and inhibition rate as the horizontal and vertical coordinates, and the curve was fitted with the XLFit excel add-in version 4.3.1 Software, and IC50 was calculated.

For a further assay, the target named is Histone deacetylase 1 (Homo sapiens, UniProt Q13547). The assay can be described thus: HDAC-1 and HDAC-6 Activity Inhibition Experiment: HDAC activity was measured by the Synergy MX Multi-Function Microplate Reader. The compounds were dissolved with DMSO, and transferred to a 384 well test plate using an Echo non-contact nanoscale sonic pipetting system. 15 μl of enzyme (HDAC1/HDAC6, respectively) solvent was added, and incubated at room temperature for 15 minutes, then 10 μl of substrate (trypsin and Ac-peptide) solution was added. Fluorescence intensity signal was read directly on Synergy MX (fluorescence excitation 355 nm, emission fluorescence 460 nm) after cultivated at room temperature for 60 minutes. Fluorescence intensity signal was convented into inhibition rate data (% inhibition rate=(max−fluorescence intensity)/(max−min)*100). The max refers to the fluorescence intensity of the DMSO control, and min refers to the fluorescence intensity of the enzyme-free control. The curve was drawn with the compound concentration and inhibition rate as the horizontal and vertical coordinates, and the curve was fitted with the GraphPad Prism V5.0 Software, and IC50 was calculated.
Chain of Histone deacetylase 1 (Q13547 whole entry): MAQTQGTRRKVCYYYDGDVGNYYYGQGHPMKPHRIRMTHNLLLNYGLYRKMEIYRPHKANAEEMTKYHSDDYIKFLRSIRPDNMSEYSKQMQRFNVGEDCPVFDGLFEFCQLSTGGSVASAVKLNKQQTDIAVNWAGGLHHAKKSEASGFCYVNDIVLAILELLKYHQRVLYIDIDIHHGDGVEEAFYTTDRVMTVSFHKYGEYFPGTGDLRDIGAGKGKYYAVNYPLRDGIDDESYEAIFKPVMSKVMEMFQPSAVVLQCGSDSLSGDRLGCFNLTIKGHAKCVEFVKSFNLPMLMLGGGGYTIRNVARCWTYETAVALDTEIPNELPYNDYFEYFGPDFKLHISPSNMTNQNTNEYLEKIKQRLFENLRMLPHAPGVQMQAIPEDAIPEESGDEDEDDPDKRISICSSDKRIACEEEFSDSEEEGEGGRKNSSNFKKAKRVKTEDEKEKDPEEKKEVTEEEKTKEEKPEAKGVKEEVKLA

As usually defined, the IC50 is the midpoint of a concentration-inhibition curve. For the compound `O=C(CCCCCCNC(=O)c1cccc(-c2cn3ccnc3c(Nc3ccc(N4CCOCC4)cc3)n2)c1)NO`, the 50% inhibitory concentration (IC50) in assay [1] was less than 500 nM; on Histone deacetylase 1 it was less than 100 nM.
